Reference: paper PMC8143347, “Metabolism and Interspecies Variation of IMMH-010, a Programmed Cell Death Ligand 1 Inhibitor Prodrug” (Pharmaceutics, 2021)

Tests used:
[1] = IMMH-010 stability in rat plasma; type: in vitro ADME; settings: 10 μM, 4 °C, 60 min
Method: IMMH-010 hydrolysis was investigated in human, monkey, rat, and mouse plasma. IMMH-010 (1 μM) was incubated in human, monkey, or […] plasma (0.2 mL) at 37 °C for 120 min. IMMH-010 (10 μM) was incubated in rat or mouse plasma (0.2 mL) at 4 °C for 60 min. The experiments were performed in triplicate. The reactions were initiated by the addition of IMMH-010 (10 μM). After incubation, the reactions were stopped by adding 2 volumes of ice-cold acetonitrile. After vortexing and centrifuging, the concentrations of IMMH-010 and YPD-29B in the supernatant were determined by liquid chromatography with tandem mass spectrometry (LC-MS/MS). The compound olmesartan (10 μM), a substrate of paraoxonase 1, was set as the positive control.

[2] = target: T1, CES1 (Homo sapiens, UniProt P23141); assay: IMMH-010 hydrolysis by recombinant human CES1; type: in vitro ADME; design: purchased Cypex Ltd. (Dundee, United Kingdom); settings: 10 μM, CES1 0.1 mg/mL, 15 min, 37 °C
T1 sequence (P23141 18-567): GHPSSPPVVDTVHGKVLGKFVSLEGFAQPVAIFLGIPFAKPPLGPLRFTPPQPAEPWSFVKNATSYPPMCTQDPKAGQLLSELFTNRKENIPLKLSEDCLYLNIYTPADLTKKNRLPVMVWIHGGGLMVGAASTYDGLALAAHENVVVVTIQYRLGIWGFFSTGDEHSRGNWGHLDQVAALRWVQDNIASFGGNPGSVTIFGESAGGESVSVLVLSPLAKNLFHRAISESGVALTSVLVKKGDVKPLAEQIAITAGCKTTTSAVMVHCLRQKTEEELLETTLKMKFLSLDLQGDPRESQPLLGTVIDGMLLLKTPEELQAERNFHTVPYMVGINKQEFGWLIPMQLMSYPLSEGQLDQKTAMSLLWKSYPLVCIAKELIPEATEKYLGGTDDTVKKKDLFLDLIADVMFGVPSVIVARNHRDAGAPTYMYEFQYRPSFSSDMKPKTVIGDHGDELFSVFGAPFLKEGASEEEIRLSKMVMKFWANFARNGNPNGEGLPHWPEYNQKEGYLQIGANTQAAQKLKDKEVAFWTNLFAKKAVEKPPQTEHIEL
Method: To verify the role of CES1, CES2, and AADAC in human metabolism of […]-010 (10 μM) was incubated individually with recombinant human CES1, CES2, and AADAC (0.1 mg protein/mL) at 37 °C for 15 min. Lidocaine (500 μM), CPT-11 (2 μM), and phenacetin (1 mM), which are substrates of CES1, CES2, and AADAC, were used as positive controls.

plasma stability [1]: decreased time-dependently
remaining amount of IMMH-010 [2]: 12.9%
Compound: CC(C)OC(=O)[C@H](CO)NCc1cc(Cl)c(OCc2cccc(-c3ccccc3)c2Br)cc1OCc1cccnc1 [IMMH-010]
